Assay results published in PubChem BioAssay (NCI).
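These data come from cells grown in 96-well plates and exposed to compound for 48 hours at five concentrations. TGI is the concentration that stops growth completely.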

Assays:
Assay in all cases: DTP human tumour cell line panel, 48 h
HCC-2998 colon = test system: HCC-2998 colon
OVCAR-4 ovarian = test system: OVCAR-4 ovarian
M14 melanoma = test system: M14 melanoma
U251 CNS = test system: U251 CNS
ACHN renal = test system: ACHN renal
OVCAR-3 ovarian = test system: OVCAR-3 ovarian
SK-MEL-2 melanoma = test system: SK-MEL-2 melanoma
HL-60(TB) leukemia = test system: HL-60(TB) leukemia
SNB-75 CNS = test system: SNB-75 CNS
NCI-H23 lung = test system: NCI-H23 lung
UO-31 renal = test system: UO-31 renal
A498 renal = test system: A498 renal
KM12 colon = test system: KM12 colon
SK-MEL-28 melanoma = test system: SK-MEL-28 melanoma
HT29 colon = test system: HT29 colon
MCF7 breast = test system: MCF7 breast
MDA-MB-435 = test system: MDA-MB-435
EKVX NSCLC = test system: EKVX NSCLC
MDA-MB-231 breast = test system: MDA-MB-231 breast
SN12C renal = test system: SN12C renal
SF-268 CNS = test system: SF-268 CNS
SF-295 CNS = test system: SF-295 CNS
MOLT-4 leukemia = test system: MOLT-4 leukemia
NCI/ADR-RES ovarian = test system: NCI/ADR-RES ovarian
SW-620 colon = test system: SW-620 colon
NCI-H460 lung = test system: NCI-H460 lung
HCT-15 colon = test system: HCT-15 colon
A549 NSCLC = test system: A549 NSCLC
SK-OV-3 ovarian = test system: SK-OV-3 ovarian
T-47D breast = test system: T-47D breast
K-562 leukemia = test system: K-562 leukemia
HOP-92 NSCLC = test system: HOP-92 NSCLC
CCRF-CEM leukemia = test system: CCRF-CEM leukemia
LOX IMVI melanoma = test system: LOX IMVI melanoma
OVCAR-8 ovarian = test system: OVCAR-8 ovarian
IGROV1 ovarian = test system: IGROV1 ovarian
HS 578T breast = test system: HS 578T breast
UACC-257 melanoma = test system: UACC-257 melanoma
SF-539 CNS = test system: SF-539 CNS
SNB-19 CNS = test system: SNB-19 CNS
TK-10 renal = test system: TK-10 renal
MDA-N = test system: MDA-N
UACC-62 melanoma = test system: UACC-62 melanoma
NCI-H226 lung = test system: NCI-H226 lung
RXF 393 renal = test system: RXF 393 renal
NCI-H522 lung = test system: NCI-H522 lung
COLO 205 colon = test system: COLO 205 colon
HCT-116 colon = test system: HCT-116 colon
BT-549 breast = test system: BT-549 breast
OVCAR-5 ovarian = test system: OVCAR-5 ovarian
HOP-62 NSCLC = test system: HOP-62 NSCLC
CAKI-1 renal = test system: CAKI-1 renal
PC-3 prostate = test system: PC-3 prostate
RPMI-8226 leukemia = test system: RPMI-8226 leukemia
DU-145 prostate = test system: DU-145 prostate
786-0 renal = test system: 786-0 renal
SK-MEL-5 melanoma = test system: SK-MEL-5 melanoma
MALME-3M melanoma = test system: MALME-3M melanoma

Measured: TGI

COC(OC)C1OC(CO)C(n2cc(F)c(=O)[nH]c2=O)C1O (stereo not given)
64.4 µM: DU-145 prostate
28.5 µM: COLO 205 colon
not listed: 786-0 renal | SK-MEL-5 melanoma | MALME-3M melanoma
> 100 µM: all other assays above

Cc1nc2ncn3c(c-2c1Cc1ccccc1)NC=C(O)N3
64 µM: RXF 393 renal
67.8 µM: SNB-75 CNS
61.3 µM: T-47D breast
65.7 µM: IGROV1 ovarian
not listed: K-562 leukemia | HOP-92 NSCLC | LOX IMVI melanoma
> 100 µM: all other assays above
